From paper PMC12851022, “Targeting the Spliceosomal Protein USP39 Through Allosteric Ligands and PROTAC‐Induced Degradation” (Angewandte Chemie (International Ed. in English), 2025) come the findings set out here.

The target in assay [1] is T1, USP39_T2 (Homo sapiens, UniProt Q53GS9).
T1 construct: USP39_T2 (ZNF domain only); made in house
T1 sequence (Q53GS9 103-200 limits assumed): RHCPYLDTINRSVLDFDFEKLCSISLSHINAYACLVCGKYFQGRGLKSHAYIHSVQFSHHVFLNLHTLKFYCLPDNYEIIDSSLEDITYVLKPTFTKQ
Briefly: Isothermal titration calorimetry (ITC). The format is binding. On the technique in general: ITC needs no label: the signal is the heat of the interaction.

In assay [2] the target is T2, USP39 (Homo sapiens, UniProt Q53GS9).
T2 sequence (Q53GS9 1-565): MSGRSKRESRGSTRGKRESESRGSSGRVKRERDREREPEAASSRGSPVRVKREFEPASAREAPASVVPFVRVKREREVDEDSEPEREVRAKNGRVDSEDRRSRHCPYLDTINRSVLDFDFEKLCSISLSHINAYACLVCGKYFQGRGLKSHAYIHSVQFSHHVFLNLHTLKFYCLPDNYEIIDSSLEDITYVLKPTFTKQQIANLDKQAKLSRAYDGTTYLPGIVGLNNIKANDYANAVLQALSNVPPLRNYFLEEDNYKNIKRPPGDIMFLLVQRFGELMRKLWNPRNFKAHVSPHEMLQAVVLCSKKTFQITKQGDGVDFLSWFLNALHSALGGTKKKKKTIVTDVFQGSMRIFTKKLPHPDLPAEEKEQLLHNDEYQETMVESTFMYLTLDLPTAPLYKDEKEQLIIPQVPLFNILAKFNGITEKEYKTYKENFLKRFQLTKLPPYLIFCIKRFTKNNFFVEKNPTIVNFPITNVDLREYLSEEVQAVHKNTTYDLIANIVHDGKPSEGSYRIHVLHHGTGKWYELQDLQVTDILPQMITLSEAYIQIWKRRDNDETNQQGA
The assay can be described thus: Western blot of USP39 levels in VHL KO HeLa cells. It is filed as cell-based. The arrangement: endogenous in cells; host or cells: VHL-KO HeLa. As for the experimental part:
Figure 4 Effective and selective degradation of USP39 in cells by USP39‐PROTACs. a) Optimization of cellular degradation assay in HeLa cells transiently overexpressing USP39‑OFP (HeLa‐USP39‐OFP). […] GAPDH was used as a loading control. g) Proteasome dependence of USP39 degradation. HeLa‐WT cells were co‐treated with MG132 (0.25 µM) or DMSO control and USP39_PROTAC_V1 for 24 h ST. h) Representative immunofluorescence images of HeLa‐USP39_OFP cells treated with DMSO (NT), USP39_PROTAC_V1 (10 nM, 24 h), or USP39_PROTAC_V1 + MLN4924 (1 µM), stained for USP39 (red) and nuclei (blue). i) Quantification of USP39 degradation by fluorescence microscopy, showing DC50 values of 13 nM without MLN4924 (orange) and 204 nM with MLN4924 (blue) (MLN4924 = 5 uM). j) VHL‐dependence of PROTAC‐induced degradation. Schematic of PROTAC recruitment to VHL via hydroxyl‐proline interactions (His115, Ser111). Western blot comparing USP39 levels in VHL WT and VHL KO HeLa cells treated with USP39_PROTAC_V1. k) Fluorescence assay in HEK293T cells co‐expressing USP39‑OFP and either VHL_WT‑EGFP or VHL_m (Δ91–121). […] Comparison of untreated (NT) and USP39_PROTAC_V1–treated (10 nM, 24 h) samples. Percent spliced/unspliced (S/U) ratios are shown, reflecting USP39‐deficiency–associated splicing defects. Data represent at least four independent biological replicates. […]

As usually defined, the Kd is the equilibrium constant for the complex coming apart.

In assay [1], `Cc1ncsc1-c1ccc(CNC(=O)C2CC(O)CN2C(=O)C(NC(=O)CCOCCOCCOCCNC(=O)c2csc(Nc3ccc(Cl)cc3)n2)C(C)(C)C)cc1` (centres unmarked) [USP39_PROTAC_V1] had a dissociation constant (Kd) of 136 nM. For the same compound, the “USP39 degradation in VHL-KO HeLa cells” value in assay [2] is “significantly attenuated”.
